Reference: ChEMBL document CHEMBL1921753, “Semisynthesis and biological evaluation of ganodermanontriol and its stereoisomeric triols” (J Nat Prod, 2011)

How the values were obtained:
Format in all cases: functional, cell-based
MCF7 [1] = assay: Antiproliferative activity against human MCF7 cells after 24 to 72 hrs by MTT assay
MDA-MB-231 [2] = assay: Antiproliferative activity against human MDA-MB-231 cells after 24 to 72 hrs by MTT assay
MDA-MB-231 [3] = assay: Antiproliferative activity against human MDA-MB-231 cells after 72 hrs by MTT assay; conditions: MDA-MB-231, 72 h
MCF7 [4] = assay: Antiproliferative activity against human MCF7 cells after 72 hrs by MTT assay; conditions: MCF7, 72 h

Compound	IC50 (MCF7 [1])	IC50 (MDA-MB-231 [2])	IC50 (MDA-MB-231 [3])	IC50 (MCF7 [4])
C[C@H](CC[C@@H](O)[C@@](C)(O)CO)[C@H]1CC[C@@]2(C)C3=CC[C@H]4C(C)(C)C(=O)CC[C@]4(C)C3=CC[C@]12C	24.1 µM	33.8 µM		
C[C@H](CC[C@H](O)[C@@](C)(O)CO)[C@H]1CC[C@@]2(C)C3=CC[C@H]4C(C)(C)C(=O)CC[C@]4(C)C3=CC[C@]12C	16.3 µM	36.7 µM		
C[C@H](CC[C@@H](O)[C@](C)(O)CO)[C@H]1CC[C@@]2(C)C3=CC[C@H]4C(C)(C)C(=O)CC[C@]4(C)C3=CC[C@]12C	24.1 µM	11.3 µM		
C[C@H](CC[C@H](O)[C@](C)(O)CO)[C@H]1CC[C@@]2(C)C3=CC[C@H]4C(C)(C)C(=O)CC[C@]4(C)C3=CC[C@]12C [GANODERMANONTRIOL]			9.7 µM	5.8 µM
